Biological target: T1, SIK1 (Homo sapiens, UniProt P57059)
T1 construct: purchased Thermo Fisher Scientific (Life Technologies) SelectScreen
Assay: SelectScreen LanthaScreen
Format: binding
Details: 1 µM
Procedure, shortened: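 Percent values come from Thermo SelectScreen profiling of NU5455, combining activity and binding assays. CSF1R was run in Z'LYTE format at Km app ATP, and CAMK1 in Adapta format with ATP listed at 10.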

T1 sequence (P57059 whole entry): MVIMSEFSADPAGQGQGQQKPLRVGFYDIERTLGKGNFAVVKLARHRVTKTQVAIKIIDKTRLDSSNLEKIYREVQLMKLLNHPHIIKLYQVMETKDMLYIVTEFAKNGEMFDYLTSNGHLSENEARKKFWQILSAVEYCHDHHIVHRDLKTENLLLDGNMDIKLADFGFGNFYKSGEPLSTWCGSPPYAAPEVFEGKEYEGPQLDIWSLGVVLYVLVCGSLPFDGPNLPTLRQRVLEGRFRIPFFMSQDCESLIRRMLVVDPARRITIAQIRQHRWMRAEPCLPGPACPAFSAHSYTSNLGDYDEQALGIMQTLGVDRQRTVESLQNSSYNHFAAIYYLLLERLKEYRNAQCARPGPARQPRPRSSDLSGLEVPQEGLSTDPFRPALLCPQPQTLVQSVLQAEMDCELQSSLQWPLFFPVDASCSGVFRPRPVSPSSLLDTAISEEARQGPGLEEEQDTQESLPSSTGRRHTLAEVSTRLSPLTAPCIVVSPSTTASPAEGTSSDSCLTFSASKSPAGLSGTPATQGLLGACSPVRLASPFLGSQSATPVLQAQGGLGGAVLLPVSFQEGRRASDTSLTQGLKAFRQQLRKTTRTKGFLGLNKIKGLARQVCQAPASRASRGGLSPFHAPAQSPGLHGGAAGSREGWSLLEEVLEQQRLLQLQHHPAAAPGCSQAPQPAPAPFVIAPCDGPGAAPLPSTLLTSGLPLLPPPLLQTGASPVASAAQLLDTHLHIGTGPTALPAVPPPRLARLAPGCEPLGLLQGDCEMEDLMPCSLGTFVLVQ

## CN(C(=O)CN1CCOCC1)c1ccc2sc3c(-c4cccc5c(=O)cc(N6CC7CCC(C6)O7)oc45)cccc3c2c1 [NU5455]
  % displacement: 1.3%
